According to PMC10766610, “DCAF1-based PROTACs with activity against clinically validated targets overcoming intrinsic- and acquired-degrader resistance” (Nature Communications, 2024):
Where two headings read alike, the source gives them in different places.

What was measured:
[1] = target: T1, DCAF1(WDR) (Homo sapiens, UniProt Q9Y4B6, E1398S); experiment: DCAF1 TR-FRET competition assay, standard binary format; format: binding
T1 construct: His6 (C); made in house; host or cells: Sf9 insect cells (baculovirus), co-expressed with BirA
Procedure: (§1) Competition assay conditions consist of 20 µL total volume in white 384-well plates (Greiner), in 30 mM phosphate buffer pH 7.4 containing 140 mM NaCl, 0.01% Tween20, 1 mM TCEP and 1% final DMSO. Tested compounds at 14 different concentrations were pre-incubated at 22 °C for 30 min with a large excess of 10 µM human BTK (G389-S659) or 10 µM human BRD9-BD(130-250) in the cooperative assay or with buffer in standard binary assay. […] Samples were then incubated at 22 °C for 30 min before reading using a Tecan infinite M-1000 or PheraStar FSX (excitation 340 nm, emission 490 and 520 nm). DCAF1 protein was omitted in the negative control. IC50 fitting was carried out using an in-house developed software (Novartis Helios software application, unpublished, a publicly available alternative would be e.g., Graphpad Prism) using the methods described by Fomenko et al.[93] (regression algorithms for nonlinear dose-response curve fitting). Following normalization of activity values for the wells to % inhibition (% inhibition = [(high control-sample)/(high control-low control)] × 100). Data analysis could also be carried out using GraphPad Prism without prior normalization. The reported IC50 values are the average of at least two independent experiments.

[2] = target: T2, DCAF1(WDR) + BTK (Homo sapiens, UniProt Q06187+Q9Y4B6, E1398S); experiment: SPR ternary binding assay, immobilized DCAF1(WDR), BTK (389-659) in buffer; conditions: Fig. 6b
T2 construct: BTK (389-659) or BRD9; His6 (C); His (PreScission site) (N); made in house; host or cells: Sf9 insect cells (both chains)
Source text: Supplementary figure 8. SPR data of binary and ternary DCAF1-BTK PROTACs
without additional BTK as analytes. […] In
the middle panel the steady state fit responses are blotted against the PROTAC concentrations The
Source data are provided as a Source Data file

[3] = target: T3, BTK kinase domain (Homo sapiens, UniProt Q06187); experiment: BTK EPK assay (enzymatic inhibition); format: biochemical
T3 construct: BTK kinase domain was mixed in assay buffer
Procedure: BTK kinase domain was mixed in assay buffer containing 50 mM HEPES pH 7.5, 0.02% Tween20, 0.02 % bovine serum albumin, 1 mM DTT, 0.01 mM Na3VO4, 10 mM b-Glycerolphosphate, 18 mM MgCl2, 1 mM MnCl2 to a 2× concentration of 8 nM. This solution was added to pre-dispensed compound dilution series in black, 384 well -low dead volume plates (Greiner) and the reaction was initiated by the addition of ATP and a BTK consensus peptide (Sequence: 5-Fluo-Ahx-[…]-Nle-P-Nle-NAND-NH2) to a final assay concentrations of 0.047 mM and 0.002 mM, respectively in assay buffer. The reaction was stopped after 60 min at 32 °C by addition of the same volume of spot solution containing 100 mM HEPES pH 7.5, 5% DMSO, 10 mM EDTA, 0.015% Brij 35. Stopped reactions were analyzed on a Caliper LC3000, which was treated with the commercially available coating reagents CR−3 and CR-8 as instructed by the manufacturer. The relative intensities of phosphorylated peptide were calculated. Data was normalized to control wells containing 100 mM EDTA solution instead of the 2× kinase solutions (0%) and DMSO-only control wells (100%). Normalized data was fitted using a sigmoidal fit.

[4] = target: T4, DCAF1(WDR) with additional 10 µM BTK (Homo sapiens, UniProt Q06187+Q9Y4B6, E1398S); experiment: DCAF1 TR-FRET, cooperative format with 10 µM BTK; format: binding; conditions: cooperative format (+ BTK in Fig. 6b); ± SD (n); read-out: IC50 Alpha DCAF1 TR-FRET
T4 construct: 2 nM human DCAF1(1073-1399)_E1398S-Avi-His; human BTK (G389-S659); His6 (C); His (PreScission site) (N); made in house; host or cells: Sf9 insect cells (both chains)
Procedure: as §1

[5] = ± SD (n), read-out: IC50 DCAF1 TR-FRET

T1 sequence (Q9Y4B6 1073-1399 E1398S): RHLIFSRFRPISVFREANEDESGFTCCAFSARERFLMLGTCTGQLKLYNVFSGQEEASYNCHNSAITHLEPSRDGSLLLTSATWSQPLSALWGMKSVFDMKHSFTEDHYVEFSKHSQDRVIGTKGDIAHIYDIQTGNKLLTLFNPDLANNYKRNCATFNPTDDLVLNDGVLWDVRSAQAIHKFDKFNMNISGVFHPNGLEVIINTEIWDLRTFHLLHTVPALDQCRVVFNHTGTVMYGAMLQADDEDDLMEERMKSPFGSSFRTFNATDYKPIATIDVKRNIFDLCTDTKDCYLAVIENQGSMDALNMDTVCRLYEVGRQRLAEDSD
T3 sequence (Q06187 402-655 limits assumed): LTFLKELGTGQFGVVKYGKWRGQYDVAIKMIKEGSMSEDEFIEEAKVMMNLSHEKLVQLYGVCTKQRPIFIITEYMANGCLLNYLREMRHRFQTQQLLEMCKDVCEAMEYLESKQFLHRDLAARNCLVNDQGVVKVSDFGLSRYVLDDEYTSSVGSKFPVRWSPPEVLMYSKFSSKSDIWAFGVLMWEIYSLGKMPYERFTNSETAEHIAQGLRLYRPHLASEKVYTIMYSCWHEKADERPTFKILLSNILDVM
T4 sequence (Q9Y4B6 1073-1399 E1398S): as the sequence (Q9Y4B6 1073-1399 E1398S) above
T4 sequence (Q06187 389-659): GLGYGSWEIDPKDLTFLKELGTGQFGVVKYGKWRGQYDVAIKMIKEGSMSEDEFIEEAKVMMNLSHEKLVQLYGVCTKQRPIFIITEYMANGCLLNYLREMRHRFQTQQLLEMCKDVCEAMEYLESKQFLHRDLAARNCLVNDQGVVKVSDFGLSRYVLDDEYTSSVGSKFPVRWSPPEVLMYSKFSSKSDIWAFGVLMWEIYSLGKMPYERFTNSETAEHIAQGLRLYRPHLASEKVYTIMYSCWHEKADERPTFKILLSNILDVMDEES
T2 sequence (Q9Y4B6 1073-1399 E1398S): as the sequence (Q9Y4B6 1073-1399 E1398S) above
T2 sequence (Q06187 389-659): as the sequence (Q06187 389-659) above

Row | Compound | IC50 ([1]; binary, compound alone, spread in brackets, read-out: TR-FRET Q. IC50) [nM] | Kd [2] [nM] | IC50 [3] [nM] | IC50 [4] [nM] | IC50 [1, 5] [nM]
1 | COc1cc(-c2cn(C)c(=O)c3cnccc23)c(OC)cc1CN1CCC(OCCCCCC(=O)N2CCN(c3ccc4c(NCCN)nc(C5(c6ccc(Cl)cc6)CCCCC5)nc4c3)CC2)CC1 [DBr-1] | 38 | – | – | – | –
2 | Cc1c(NC(=O)c2ccc(C(C)(C)O)cc2F)cc(F)cc1-c1ncnc2[nH]c(-c3ccc(CNCCOCCOCCOCCOCCOCCOCCOCCOCCOCCOCCOCCOCCC(=O)N4CCN(c5ccc6c(NCCN)nc(C7(c8ccc(Cl)cc8)CCCCC7)nc6c5)CC4)cc3)cc12 [DBt-5] | – | 480 | 62 | 282 ± 84 | 23 ± 5
3 | Cc1c(NC(=O)N2CC(O)(CC(C)(C)C)C2)cc(F)cc1-c1ncnc2[nH]c(-c3cnn(CC(=O)N4CCC5(CC4)CN(CCNC(=O)CCCC(=O)N4CCN(c6ccc7c(NCCN)nc(C8(c9ccc(Cl)cc9)CCCCC8)nc7c6)CC4)CCO5)c3)cc12 [DBt-10] | – | 33 | 44 | 82 ± 39 | 134 ± 68
